# Measurements from US20040157809A1, “Composition comprising an androgen receptor blocker and an insulin sensitizing agent and use thereof for treatment of polycystic ovary syndrome” (priority 2001, published 2004).
# Columns and labels:
# [1] = test system: women with ovarian hyperandrogenism; test: Example 1: tolerability and safety variables (blood count, liver-kidney function); format: in vivo, human; details: flutamide 250 mg/day
# Description: After 6 months on either monotherapy or combined therapy, fasting glucose and insulin were reassessed together with serum LH (luteinizing hormone), FSH (Follicle stimulating hormone), estradiol, testosterone, androstenedione, DHEAS, SHBG, and lipid profile. Blood count and liver-kidney function were also screened after 1, 3, and 6 months, as additional safety variables.
# [2] = test system: women with ovarian hyperandrogenism; test: Example 1: ovulation assessment by weekly serum progesterone; format: in vivo, human; details: after 9 months; weekly serum progesterone measurements
# Description: Prior to start of treatment, ovulatory function was documented twice (months −3 and −1) by measuring serum progesterone concentrations in 4 consecutive samples obtained with an interval of 1 week. […] The ovulation results before start of treatment are the average of the results obtained during month -3 and -1, whereas the 3 months results are the mean of those obtained after 2 and 4 months on treatment.
compound,measurement,setting,value
"CC(C)C(=O)Nc1ccc([N+](=O)[O-])c(C(F)(F)F)c1 [Flutamide, 2-methyl-N-[4-nitro-3(trifluoromethyl)phenyl] popanamide]",women complaining of dry skin,[1],1 of 10
same,monthly fraction of ovulatory cycles,[2],20%
